US20140010824A1 (priority 2012, published 2014)
≈ marks a conversion by molar mass, not a printed value.

Key:
Assay in all cases: microbe, parasite or virus in culture
[1] = test system: Yptb(P^−) pGC1 (empty); format: cell-based; settings: Yersinia pseudotuberculosis, read-out: minimum inhibitory concentration (MIC)
[2] = test system: Yptb(P^−) ΔmrtAB pGC1 (empty); format: cell-based; settings: for MIC: Yersinia pseudotuberculosis, read-out: minimum inhibitory concentration (MIC)
[3] = test system: Yptb(P^−) ΔmrtAB pmrtA^+B^+; format: cell-based; settings: Yersinia pseudotuberculosis, read-out: minimum inhibitory concentration (MIC)
[4] = test system: Yptb(P^−) pmrtA^+B^+; format: cell-based, Yersinia pseudotuberculosis; settings: for MIC: Yersinia pseudotuberculosis, read-out: minimum inhibitory concentration (MIC)
[5] = test system: Yptb(P^−) ΔmrtAB pmrtA^+B^+ flag; format: cell-based; settings: Yersinia pseudotuberculosis, read-out: minimum inhibitory concentration (MIC)

Compound | MIC [1] [µg/mL] | MIC [2] [µg/mL] | MIC [3] [µg/mL] | MIC [4] [µg/mL] | MIC [5] [µg/mL] | difference in MIC resulting from the absence of MrtAB [2] | change of susceptibility on expression of mrtAB on multi-copy plasmid (pACYC 184 derivative) [4]
CC[n+]1c(-c2ccccc2)c2cc(N)ccc2c2ccc(N)cc21 [ethidium bromide] | 25 | 25 | 100 | 100 | 100 | – | –
Cn1c2cccc(=O)c-2nc2ccccc21 [pyocyanin] | 1 (≈ 4.76 µM) | 1 (≈ 4.76 µM) | 0.25 (≈ 1.19 µM) | 0.25 (≈ 1.19 µM) | 0.25 (≈ 1.19 µM) | No difference was detected | increased susceptibility
CN(C)c1ccc2cc3ccc(N(C)C)cc3nc2c1 [aeridine orange, N,N,N′,N′-tetramethylacridine-3,6-diamine] | 50 (≈ 188 µM) | 50 (≈ 188 µM) | 50 (≈ 188 µM) | 50 (≈ 188 µM) | – | – | –
